Assay [1] deals with candida, three clinical isolates. Kind of assay: inhibition of candida filamentation in vitro, checkerboard assay with nystatin in RPMI medium. In kind it is cell-based, Candida albicans. Here is the method: The inhibitory effect of Maqui berry extract and nystatin, one of the most commonly applied topical antifungal drugs, on candida filamentation was investigated in vitro in three clinical isolates in RPMI medium in a checkerboard assay. The extract was tested in a concentration range of 0.125; 0.25 and 0.5 mg/mL (31.25; 62.5 and 125 μg/mL delphinidin, respectively 43.75; 87.5 and 175 μg/mL total anthocyanins), and nystatin in the concentration range 2 μg/mL (MIK), 1 μg/mL (½MIK) and 0.5 μg/mL (¼MIK).

The test system of assay [2] is Candida albicans SC5314. Description: zebrafish embryo hindbrain infection model, inhibition of candida filamentation in vivo. More on the design: species or system Candida albicans (host: zebrafish embryo). As for the experimental part: The model of the brain infection (hindbrain) of the zebrafish embryo with Candida albicans, described in the literature, is an animal model of the infection system which due to the optical transparency of the embryo body provides the ability to examine and monitor the effect of applied therapeutics on replication, filamentation and fungi dissemination through the body of the zebrafish embryo as a host. The embryos at the developmental stage of 32-34 hpf were injected into the brain through an optic vesicle with 50-75 Candida albicans SC5314 cells, previously labeled with green fluorescent dye. Candida inoculum was prepared in 5% polyvinylpyrrolidone (PVP) solution. Two hours after the microinjection of candida, the infected embryos were treated with Maqui berry extract at a concentration of 0.0625 mg/mL, 0.125 mg/mL and 0.25 mg/mL, as well as nystatin at a concentration of 1 μg/mL (½MIK) and 0.5 μg/mL (¼MIK). Beside individual treatments, the infected embryos were exposed to a combined treatment (nystatin and extract together), in combinations of all mentioned doses. The embryos injected with only 5% PVP represented the control group. After the applied treatments, the zebrafish embryos were reared for the next 4 days at a temperature of 31° C. and monitored daily for survival as well as filamentation and dissemination of candida using fluorescence microscopy.

[3] abbreviates: nystatin alone, MIK dose (2 μg/mL).

For the compound `C[C@@H]1[C@H](O)[C@@H](C)/C=C/C=C/CC/C=C/C=C/C=C/C=C/C(O[C@H]2O[C@H](C)[C@@H](O)[C@H](N)[C@@H]2O)CC2O[C@](O)(CC(O)C(O)CCC(O)CC(O)CC(O)CC(=O)O[C@H]1C)CC(O)C2C(=O)O` (stereo partly drawn) [nystatin], the MIK in assay [1] (clinical isolates, RPMI medium) stood at 2 µg/mL. In assay [1] (setting [3]), the filamentation entry is listed as “no filamentation” and the growth of isolates result is given as “reduced growth”. In addition, in assay [1] (nystatin alone, ½MIK (1 μg/mL) and ¼MIK (0.5 μg/mL) doses), the growth and filamentation entry is “grew and filamented”. The filamentation in vivo entry in assay [2] (both nystatin concentrations (0.5 and 1 μg/mL)) is “filamentation was present”. Besides, the “infection (candidiasis) compared to untreated embryos” value in assay [2] (nystatin 0.5 μg/mL (¼MIK) and 1 μg/mL (½MIK)) was “significantly reduced”.

The values above are taken from patent US20240197800A1, “Aristotelia chilensis EXTRACTS FOR TREATING FUNGAL INFECTIONS” (Phytonet Doo Beograd-rakovica, priority 2021, published 2024).
